According to article PMC11187573, “Identification of SARS-CoV-2 Mpro inhibitors through deep reinforcement learning for de novo drug design and computational chemistry approaches” (RSC Medicinal Chemistry, 2024):
Read-outs that look alike come from different tables or passages of the source.

How the values were obtained:
SARS-CoV-2 main protease [1] = assay type: biochemical; details: Docking validation set, class assigned from COVID Moonshot IC50
[2] = target: recombinant SARS-CoV-2 main protease Mpro (Severe acute respiratory syndrome coronavirus 2, UniProt P0DTC1); assay: FRET-based Mpro proteolytic activity assay; assay type: biochemical; details: for IC50: Mpro FRET (1 μM DTT)
SARS-CoV-2 main protease [3] = details: cited from earlier work; for f_avg_pIC50: Covid_Moonshot_activity_data.csv, ref COVID Moonshot (covid.postera.ai); for IC50: Docking_validation.csv, ref COVID Moonshot, read-out: f_avg_IC50
[4] = tested on: SARS, SARS-CoV-2 and MERS Mpro; details: cited from earlier work
Mpro = details: ML dataset, cited from earlier work
trypsin = tested on: trypsin; parameters: method as in COVID Moonshot; details: Docking_validation.csv; ref COVID Moonshot; read-out: trypsin_IC50; cited from earlier work
[5] = Origin COVID_Moonshot, ref COVID Moonshot

SMILES: Cn1ccc(CN(C(=O)Cc2cccnc2)c2ccc(-c3ccccn3)cc2)n1 [ALP-POS-c0c213c9-14, Cn1ccc(CN(C(=O)Cc2cccnc2)c2ccc(-c3ccccn3)cc2)n1]
- label (active / inactive) (SARS-CoV-2 main protease [1]): inactive

SMILES: Cc1cncc(CC(=O)N2CCc3cc(Cl)c(Cl)cc3C2)c1 [Compound 12, 1-(6,7-dichloro-3,4-dihydroisoquinolin-2(1H)-yl)-2-(5-methylpyridin-3-yl)ethan-1-one]
- IC50 [2]: 2300 nM
- fold improvement of Mpro FRET IC50 after first round of optimization ([2]; relative to the parent hit (compound 8 or 10)): 27 fold

SMILES: COC[C@@]1(C(=O)Nc2cncc3ccccc23)CCOc2cc(Cl)c(Cl)cc21 [MAT-POS-932d1078-5, COC[C@@]1(C(=O)Nc2cncc3ccccc23)CCOc2cc(Cl)c(Cl)cc21]
- f_avg_pIC50 (SARS-CoV-2 main protease [3]): 4.772

SMILES: NCc1cn(CC(=O)N(CC(=O)N2CCNCC2)c2ccc(-c3ccccc3)cc2)nn1 [ALP-POS-c0c213c9-7, NCc1cn(CC(=O)N(CC(=O)N2CCNCC2)c2ccc(-c3ccccc3)cc2)nn1]
- label (active / inactive) (SARS-CoV-2 main protease [1]): inactive

SMILES: O=C(Nc1ccccc1)[C@@H](c1ccccc1)N1Cc2ccccc2C1=O [LON-WEI-b2874fec-15, O=C(Nc1ccccc1)[C@@H](c1ccccc1)N1Cc2ccccc2C1=O]
- label (active / inactive) (SARS-CoV-2 main protease [1]): inactive

SMILES: O=C(Nc1nncn1C1CC1)C1CCOc2c(F)cccc21 (stereo not shown) [BRU-THA-a358fbdd-7, O=C(Nc1nncn1C1CC1)C1CCOc2c(F)cccc21]
- label (active / inactive) (SARS-CoV-2 main protease [1]): inactive

SMILES: COc1ccc(Cl)cc1OCCNC(=O)c1cc(=O)[nH]c2cccc(OC)c12 [MAT-POS-3b536971-1, COc1ccc(Cl)cc1OCCNC(=O)c1cc(=O)[nH]c2cccc(OC)c12]
- IC50 (SARS-CoV-2 main protease [3]): 874 nM
- IC50 [4, 5]: 874 nM

SMILES: O=S(=O)(Cc1ccccc1F)c1oc(-c2ccc(F)cc2)nc1S(=O)(=O)c1ccccc1 [LON-WEI-4d77710c-2, O=S(=O)(Cc1ccccc1F)c1oc(-c2ccc(F)cc2)nc1S(=O)(=O)c1ccccc1]
- IC50 (SARS-CoV-2 main protease [3]): 397 nM
- IC50 [4, 5]: 397 nM
- IC50 (Mpro; [5]): 248 nM

SMILES: CC(=O)NCCc1c[nH]c2ccc(O)cc12 [JOH-MSK-a63bdd1d-4, CC(=O)NCCc1c[nH]c2ccc(O)cc12]
- label (active / inactive) (SARS-CoV-2 main protease [1]): inactive

SMILES: CCOC(=O)c1c(C)n(S(C)(=O)=O)c2ccc(N(C(=O)c3ccco3)S(C)(=O)=O)cc12 [LON-WEI-4d77710c-8, CCOC(=O)c1c(C)n(S(C)(=O)=O)c2ccc(N(C(=O)c3ccco3)S(C)(=O)=O)cc12]
- IC50 (SARS-CoV-2 main protease [3]): 282 nM
- IC50 [4, 5]: 282 nM
- IC50 (Mpro; [5]): 214 nM

SMILES: O=C(NCC1(C(=O)Nc2cncc3ccccc23)CCOc2ccc(Cl)cc21)C1COCCN1CC(F)(F)F (stereo not shown) [MAT-POS-932d1078-1, O=C(NCC1(C(=O)Nc2cncc3ccccc23)CCOc2ccc(Cl)cc21)C1COCCN1CC(F)(F)F]
- f_avg_pIC50 (SARS-CoV-2 main protease [3]): 4.666

SMILES: Cc1cncc(CC(=O)N2CCC[C@H]2c2cccc(Cl)c2)c1 [Compound 7, (S)-1-(2-(3-chlorophenyl)pyrrolidin-1-yl)-2-(5-methylpyridin-3-yl)ethan-1-one]
- IC50 [2]: 5600 nM

SMILES: O=C(c1cc(=O)[nH]c2ccc(F)cc12)N1CCN(S(=O)(=O)c2cccc(Cl)c2)CC1 [MAT-POS-590ac91e-69, O=C(c1cc(=O)[nH]c2ccc(F)cc12)N1CCN(S(=O)(=O)c2cccc(Cl)c2)CC1]
- label (active / inactive) (SARS-CoV-2 main protease [1]): inactive

SMILES: O=C(Cn1nnc2ccccc21)N(Cc1ccccn1)c1ccc(-n2cnnc2)cc1 [ALP-POS-c0c213c9-18, O=C(Cn1nnc2ccccc21)N(Cc1ccccn1)c1ccc(-n2cnnc2)cc1]
- label (active / inactive) (SARS-CoV-2 main protease [1]): inactive

SMILES: O=C1CC(Oc2cc(Cl)cc(CC(=O)Nn3cnc4ccccc43)c2)N1 (stereo not shown) [MAT-POS-c478e61b-1, O=C1CC(Oc2cc(Cl)cc(CC(=O)Nn3cnc4ccccc43)c2)N1]
- IC50 (SARS-CoV-2 main protease [3]): 82100 nM
- label (active / inactive) (SARS-CoV-2 main protease [1]): inactive
- IC50 (Mpro; [5]): 90600 nM

SMILES: CC(=O)N1CCN(CC(=O)Nc2cnccc2C)CC1 [BEN-DND-93268d01-8, CC(=O)N1CCN(CC(=O)Nc2cnccc2C)CC1]
- label (active / inactive) (SARS-CoV-2 main protease [1]): inactive

SMILES: c1ccc(-c2cc(Sc3nnc(-c4cccs4)o3)n3ncnc3n2)cc1 [LON-WEI-4d77710c-76, c1ccc(-c2cc(Sc3nnc(-c4cccs4)o3)n3ncnc3n2)cc1]
- IC50 (SARS-CoV-2 main protease [3]): 221 nM
- IC50 [4, 5]: 221 nM
- IC50 (Mpro; [5]): 187 nM

SMILES: O=C(Oc1cncc(Cl)c1)c1cccc2[nH]ccc12 [ALP-POS-c59291d4-5, O=C(Oc1cncc(Cl)c1)c1cccc2[nH]ccc12]
- IC50 (trypsin): 99000 nM

SMILES: O=C(COc1ccccc1F)Nc1ncnc2[nH]cnc12 [COM-UCB-8c7d23dc-1, O=C(COc1ccccc1F)Nc1ncnc2[nH]cnc12]
- label (active / inactive) (SARS-CoV-2 main protease [1]): inactive

SMILES: CCn1cncc1NC(=O)C1c2cc(Cl)cc(Cl)c2OCC1C (stereo not shown) [Compound 21, 6,8-dichloro-N-(1-ethyl-1H-imidazol-5-yl)-3-methylchromane-4-carboxamide]
- IC50 [2]: 66900 nM

SMILES: Cc1ccc(-n2ncc3c(=O)n(CC(N)=O)cnc32)cc1C [JAG-UCB-ef2c0e8e-4, Cc1ccc(-n2ncc3c(=O)n(CC(N)=O)cnc32)cc1C]
- label (active / inactive) (SARS-CoV-2 main protease [1]): inactive

SMILES: O=C(Nc1nncn1C1CC1)C1CCOc2ccccc21 (stereo not shown) [EDJ-MED-0e996074-1, O=C(Nc1nncn1C1CC1)C1CCOc2ccccc21]
- label (active / inactive) (SARS-CoV-2 main protease [1]): inactive

SMILES: O=C(Nc1cncc2ccccc12)C1COc2ccc(Cl)cc21 (stereo not shown) [MAT-POS-f7918075-2, O=C(Nc1cncc2ccccc12)C1COc2ccc(Cl)cc21]
- IC50 (SARS-CoV-2 main protease [3]): 764 nM
- IC50 [4, 5]: 2600 nM

SMILES: N#Cc1cnn(C(=O)c2cccs2)c1C1CC1 [LON-WEI-4d77710c-70, N#Cc1cnn(C(=O)c2cccs2)c1C1CC1]
- IC50 (SARS-CoV-2 main protease [3]): 3240 nM
- IC50 [4, 5]: 3240 nM
- IC50 (Mpro; [5]): 1800 nM

SMILES: Cc1ccncc1CC(=O)Nc1cccc2c1CNCC2 [ADA-UCB-6c2cb422-3, Cc1ccncc1CC(=O)Nc1cccc2c1CNCC2]
- label (active / inactive) (SARS-CoV-2 main protease [1]): inactive

SMILES: O=C(Nc1cccnc1)N(CCN1CCOCC1)c1cccc(Cl)c1 [JOR-UNI-2fc98d0b-6, O=C(Nc1cccnc1)N(CCN1CCOCC1)c1cccc(Cl)c1]
- label (active / inactive) (SARS-CoV-2 main protease [1]): inactive

SMILES: Cc1ccn2c(-c3ccc4[nH]ncc4c3)c(-c3ccc(F)cc3)nc2c1 [ALV-UNI-7ff1a6f9-14, Cc1ccn2c(-c3ccc4[nH]ncc4c3)c(-c3ccc(F)cc3)nc2c1]
- label (active / inactive) (SARS-CoV-2 main protease [1]): inactive

SMILES: O=C(Nc1nncn1C1CC1)C1CCOc2ccc(Cl)cc21 (stereo not shown) [JAG-UCB-a3ef7265-20, O=C(Nc1nncn1C1CC1)C1CCOc2ccc(Cl)cc21]
- label (active / inactive) (SARS-CoV-2 main protease [1]): inactive

SMILES: O=C(Nc1cncc2ccccc12)C1=CCCc2ccc(Cl)cc21 [MAT-POS-0c8fa4a7-1, O=C(Nc1cncc2ccccc12)C1=CCCc2ccc(Cl)cc21]
- IC50 (SARS-CoV-2 main protease [3]): 233 nM
- IC50 [4, 5]: 233 nM
- IC50 (Mpro; [5]): 157 nM

SMILES: NS(=O)(=O)c1ccc(N2CCC([C@@H]3CCCO3)CC2)cc1 [WAR-XCH-b72a1bbc-18, NS(=O)(=O)c1ccc(N2CCC([C@@H]3CCCO3)CC2)cc1]
- label (active / inactive) (SARS-CoV-2 main protease [1]): inactive

SMILES: O=C(Cc1cccc(Cl)c1)Nc1cnnc2ccccc12 [EDJ-MED-50fe53e8-2, O=C(Cc1cccc(Cl)c1)Nc1cnnc2ccccc12]
- label (active / inactive) (SARS-CoV-2 main protease [1]): inactive

SMILES: O=C(Nc1cccc(C(F)(F)F)c1)Nc1ccccc1Sc1ncc([N+](=O)[O-])s1 [LON-WEI-4d77710c-69, O=C(Nc1cccc(C(F)(F)F)c1)Nc1ccccc1Sc1ncc([N+](=O)[O-])s1]
- IC50 (SARS-CoV-2 main protease [3]): 6260 nM

SMILES: Cn1ccc(C(=O)NC[C@@H]2CCCO2)n1 [AAR-POS-0daf6b7e-23, Cn1ccc(C(=O)NC[C@@H]2CCCO2)n1]
- label (active / inactive) (SARS-CoV-2 main protease [1]): inactive

SMILES: CC1C(O)CCCN1Cc1ccccc1 (stereo not shown) [MAK-UNK-6435e6c2-9, CC1C(O)CCCN1Cc1ccccc1]
- label (active / inactive) (SARS-CoV-2 main protease [1]): inactive

SMILES: O=C(Nc1c[nH]nc1-c1ccccn1)c1cccc2nccn12 [COM-UCB-8c7d23dc-15, O=C(Nc1c[nH]nc1-c1ccccn1)c1cccc2nccn12]
- label (active / inactive) (SARS-CoV-2 main protease [1]): inactive

SMILES: Cc1[nH]c2ncnc(NC(=O)c3cc4ccccc4c(=O)o3)c2c1C [COM-UCB-8c7d23dc-12, Cc1[nH]c2ncnc(NC(=O)c3cc4ccccc4c(=O)o3)c2c1C]
- label (active / inactive) (SARS-CoV-2 main protease [1]): inactive

SMILES: C[C@@H]1C[C@H](C(=O)Nc2cncc3ccccc23)c2cc(Cl)ccc2O1 [MAT-POS-8a69d52e-2, C[C@H](C[C@@H]1C(Nc2cncc3ccccc23)=O)Oc(cc2)c1cc2Cl, reference compound]
- IC50 [4, 5]: 679 nM
- IC50 (Mpro; [5]): 1670 nM

SMILES: COC[C@]1(C(=O)Nc2cncc3ccccc23)CCOc2cc(Cl)c(Cl)cc21 [MAT-POS-932d1078-4, COC[C@]1(C(=O)Nc2cncc3ccccc23)CCOc2cc(Cl)c(Cl)cc21]
- f_avg_pIC50 (SARS-CoV-2 main protease [3]): 5.492

SMILES: Cc1ccncc1NC(=O)N(C)c1cccc(Cl)c1 [EDG-MED-0da5ad92-3, Cc1ccncc1NC(=O)N(C)c1cccc(Cl)c1]
- label (active / inactive) (SARS-CoV-2 main protease [1]): inactive

SMILES: CC(C)Nc1cccnc1N1CCN(C(=O)c2cc3cc(NS(C)(=O)=O)ccc3[nH]2)CC1 [CHEMBL929, CC(C)Nc1cccnc1N(CC1)CCN1C(c1cc(cc(cc2)NS(C)(=O)=O)c2[nH]1)=O, reference compound]
- IC50 ([4]; Origin ChEMBL, ref ChEMBL): 3990 nM
- IC50 (Mpro; Origin ChEMBL, ref ChEMBL): 3990 nM

SMILES: O=C(Cc1cccc(Cl)c1)Nn1cnc2ccccc2c1=O [JAN-GHE-5a013bed-3, O=C(Cc1cccc(Cl)c1)Nn1cnc2ccccc2c1=O]
- IC50 (SARS-CoV-2 main protease [3]): 8650 nM
- label (active / inactive) (SARS-CoV-2 main protease [1]): inactive
- IC50 (trypsin): 99000 nM

SMILES: Cc1ccncc1NC(=O)Cc1cncc(Cl)c1 [TRY-UNI-2eddb1ff-2, Cc1ccncc1NC(=O)Cc1cncc(Cl)c1]
- IC50 (SARS-CoV-2 main protease [3]): 46400 nM
- label (active / inactive) (SARS-CoV-2 main protease [1]): inactive
- IC50 (trypsin): 99000 nM

SMILES: O=C1N(Cc2cccc(Cl)c2)CCN1c1nccc2[nH]ncc12 [ALP-POS-91609ae9-3, O=C(N(Cc1cccc(Cl)c1)CC1)N1c1nccc2c1cn[nH]2, reference compound]
- IC50 [4, 5]: 4560 nM
- IC50 (Mpro; [5]): 3730 nM

SMILES: Cc1ccc(N(Cc2cccc(Cl)c2)C(=O)Cn2nnc3ccccc32)cc1 [CHO-MSK-00c5269a-1, Cc(cc1)ccc1N(Cc1cccc(Cl)c1)C(Cn1nnc2c1cccc2)=O, reference compound]
- IC50 [4, 5]: 2330 nM
- IC50 (Mpro; [5]): 2820 nM
